According to patent publication US20240083857A1, “2-Methyl-Quinazolines” (Bayer Pharma Aktiengesellschaft, priority 2017, published 2024):
Like-named read-outs stand apart in the source and are kept apart here.

Tests used:
[1] = target: Epidermal Growth Factor Receptor (EGFR) (Homo sapiens (Human), UniProt P00533); test: EGFR kinase assay (TR-FRET); assay type: biochemical
Description: EGFR inhibitory activity of compounds of the present invention was quantified employing the TR-FRET based EGFR assay as described in the following paragraphs.
Epidermal Growth Factor Receptor (EGFR) affinity purified from human carcinoma A431 cells (Sigma-Aldrich, #E3641) was used as kinase. As substrate for the kinase reaction the biotinylated peptide biotin-Ahx-[…] (SEQ ID NO 5) (C-terminus in amid form) was used which can be purchased e.g. form the company Biosyntan GmbH (Berlin-Buch, Germany).
For the assay 50 nL of a 100 fold concentrated solution of the test compound in DMSO was pipetted into a black low volume 384 well microtiter plate (Greiner Bio-One, Frickenhausen, Germany), 2 μL of a solution of EGFR in aqueous assay buffer [50 mM Hepes/HCl pH 7.0, 1 mM MgCl2, 5 mM MnCl2, 0.5 mM activated sodium ortho-vanadate, 0.005% (v/v) Tween-20]were added and the mixture was incubated for 15 min at 22° C. to allow pre-binding of the test compounds to the enzyme before the start of the kinase reaction. […] The concentration of EGFR was adjusted depending of the activity of the enzyme lot and was chosen appropriate to have the assay in the linear range, typical concentration were about 3 U/ml. The reaction was stopped by the addition of 5 μl of a solution of HTRF detection reagents (0.1 μM streptavidine-XL665 [Cis Biointernational] and 1 nM PT66-Tb-Cryptate, an terbium-cryptate labelled anti-phospho-tyrosine antibody from Cis Biointernational [instead of the PT66-Tb-cryptate PT66-Eu-Chelate from Perkin Elmer can also be used]) in an aqueous EDTA-solution (80 mM EDTA, 0.2% (w/v) bovine serum albumin in 50 mM HEPES pH 7.5).
The resulting mixture was incubated 1 h at 22° C. to allow the binding of the biotinylated phosphorylated peptide to the streptavidine-XL665 and the PT66-Eu-Chelate. Subsequently the amount of phosphorylated substrate was evaluated by measurement of the resonance energy transfer from the PT66-Tb-Cryptate to the streptavidine-XL665. Therefore, the fluorescence emissions at 620 nm and 665 nm after excitation at 337 nm were measured in a HTRF reader, e.g. a Pherastar (BMG Labtechnologies, Offenburg, Germany) or a Viewlux (Perkin-Elmer). The ratio of the emissions at 665 nm and at […] was taken as the measure for the amount of phosphorylated substrate.

[2] = target: human SOS1 (loading of human K-Ras^G12C-GDP with fluorescent GTP-analog) (Homo sapiens, UniProt Q07889); test: Biochemical assay 3: K-Ras^G12C activation assay by hSOS1 (HTRF); conditions: for inhibition at 20 µM: read-out: Assay 3 (KRAS-Activation by SOS no GTP) activity expressed as % inhibition at 20 μM
[3] = E-notation values, unit inferred, read-out: EGFR-assay IC50
[4] = E-notation values, unit inferred, read-out: Assay 3 (KRAS-Activation) IC50
[5] = values given in μM, read-out: EGFR kinase inhibition IC50
[6] = no GTP, read-out: Assay 3 (KRAS-Activation by SOS no GTP) activity expressed as IC50

Chain of Epidermal Growth Factor Receptor (EGFR) (P00533 25-1210): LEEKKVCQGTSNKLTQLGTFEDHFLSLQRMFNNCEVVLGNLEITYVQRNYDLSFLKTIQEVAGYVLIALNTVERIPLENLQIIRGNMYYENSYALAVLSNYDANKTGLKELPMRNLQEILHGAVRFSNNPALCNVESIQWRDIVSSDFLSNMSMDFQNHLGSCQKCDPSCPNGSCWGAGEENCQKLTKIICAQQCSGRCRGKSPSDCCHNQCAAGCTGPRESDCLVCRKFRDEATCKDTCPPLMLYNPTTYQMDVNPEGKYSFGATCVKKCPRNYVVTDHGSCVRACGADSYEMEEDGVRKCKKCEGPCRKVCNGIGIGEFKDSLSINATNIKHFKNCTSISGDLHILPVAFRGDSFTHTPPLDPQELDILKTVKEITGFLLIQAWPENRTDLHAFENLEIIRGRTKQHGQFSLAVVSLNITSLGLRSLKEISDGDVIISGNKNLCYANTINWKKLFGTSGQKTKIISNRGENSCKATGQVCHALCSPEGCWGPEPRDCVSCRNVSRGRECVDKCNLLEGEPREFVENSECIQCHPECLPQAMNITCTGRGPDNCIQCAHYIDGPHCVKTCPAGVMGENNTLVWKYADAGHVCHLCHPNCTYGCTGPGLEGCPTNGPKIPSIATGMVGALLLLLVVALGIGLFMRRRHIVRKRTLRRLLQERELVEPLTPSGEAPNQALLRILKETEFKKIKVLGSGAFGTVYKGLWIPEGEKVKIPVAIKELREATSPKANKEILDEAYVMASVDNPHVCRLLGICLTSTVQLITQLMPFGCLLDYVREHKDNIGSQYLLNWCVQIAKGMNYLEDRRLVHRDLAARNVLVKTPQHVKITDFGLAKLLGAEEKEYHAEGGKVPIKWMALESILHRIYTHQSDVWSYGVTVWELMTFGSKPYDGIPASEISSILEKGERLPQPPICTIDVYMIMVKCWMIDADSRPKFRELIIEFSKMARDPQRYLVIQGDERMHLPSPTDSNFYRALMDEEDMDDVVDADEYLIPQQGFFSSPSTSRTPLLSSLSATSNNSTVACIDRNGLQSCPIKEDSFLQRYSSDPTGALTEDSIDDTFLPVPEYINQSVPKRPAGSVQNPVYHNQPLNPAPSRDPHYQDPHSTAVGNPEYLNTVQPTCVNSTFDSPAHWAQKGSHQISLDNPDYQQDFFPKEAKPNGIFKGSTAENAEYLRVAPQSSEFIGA

`COc1cc2nc(C)nc(NC(C)c3ccc(-c4ccccc4CN(C)C)s3)c2cc1OC` (single isomer, unassigned) [Example 390, N-[1-(5-{2-[(dimethylamino)methyl]phenyl}thiophen-2-yl)ethyl]-6,7-dimethoxy-2-methylquinazolin-4-amine] was tested, and the IC50 [1, 3] was over 20 µM and the IC50 [2, 4] was 12.9 µM.

Work on `COc1cc2nc(C)nc(NC(C)c3ccc(-c4ccccc4CN(C)C)s3)c2cc1OC` (single isomer, unassigned) [Example 391, N-[1-(5-{2-[(dimethylamino)methyl]phenyl}thiophen-2-yl)ethyl]-6,7-dimethoxy-2-methylquinazolin-4-amine] yielded an IC50 [1, 3] of over 20 µM and an IC50 [2, 4] of 0.0379 µM.

With `COc1cc2nc(C)nc(NC(C)c3ccc(=O)[nH]c3)c2cc1OC` (single isomer, unassigned; enantiomer 1) [Example 227, 5-{1-[(6,7-dimethoxy-2-methylquinazolin-4-yl)amino]ethyl}pyridin-2(1H)-one, Enantiomer 1] the IC50 [1, 5] was over 20 µM and the inhibition at 20 µM ([2]; no GTP) was 34%.

Work on `COc1cc2nc(C)nc(NC(C)c3c(C)ccc4[nH]ncc34)c2cc1OC` (stereo not drawn) [Example 7, 6,7-dimethoxy-2-methyl-N-[1-(5-methyl-1H-indazol-4-yl)ethyl]quinazolin-4-amine] yielded an IC50 [1, 5] of over 20 µM and an inhibition at 20 µM ([2]; no GTP) of 33%.

`COc1cc2nc(C)nc(NC(C)c3ccc(-n4ccc(CCO)n4)o3)c2cc1OC` (stereo not drawn) [Example 226, 2-[1-(5-{1-[(6,7-dimethoxy-2-methylquinazolin-4-yl)amino]ethyl}furan-2-yl)-1H-pyrazol-3-yl]ethanol] showed an IC50 [1, 5] of over 20 µM and an inhibition at 20 µM ([2]; no GTP) of 24%.

Work on `COc1cc2nc(C)nc(NC(C)c3ccc(C4=CCCC4)s3)c2cc1OC` (stereo not drawn) [Example 231, N-{1-[5-(cyclopent-1-en-1-yl)thiophen-2-yl]ethyl}-6,7-dimethoxy-2-methylquinazolin-4-amine] yielded an IC50 [1, 5] of over 20 µM and an inhibition at 20 µM ([2]; no GTP) of 24%.

`COc1cc2nc(C)nc(NC(C)c3ccc(-c4ccc(CNC(=O)OC(C)(C)C)o4)s3)c2cc1OC` (stereo not drawn) [Example 236, tert-butyl {[5-(5-{1-[(6,7-dimethoxy-2-methylquinazolin-4-yl)amino]ethyl}thiophen-2-yl)furan-2-yl]methyl}carbamate] showed an IC50 [1, 5] of over 20 µM and an inhibition at 20 µM ([2]; no GTP) of 17%.

Compound `COC(=O)c1cc(-c2ccc(C(C)Nc3nc(C)nc4cc(OC)c(OC)cc34)s2)nn1C` (stereo not drawn) [Example 237, methyl 3-(5-{1-[(6,7-dimethoxy-2-methylquinazolin-4-yl)amino]ethyl}thiophen-2-yl)-1-methyl-1H-pyrazole-5-carboxylate] has an IC50 [1, 5] of over 20 µM and an inhibition at 20 µM ([2]; no GTP) of 10%.

In the case of `COc1cc2nc(C)nc(NC(C)c3ccc(-c4ccc(F)cc4CNC(=O)c4cc5ccccc5[nH]4)s3)c2cc1OC` (stereo not drawn) [Example 296, N-[2-(5-{1-[(6,7-dimethoxy-2-methylquinazolin-4-yl)amino]ethyl}thiophen-2-yl)-5-fluorobenzyl]-1H-indole-2-carboxamide], the IC50 [1, 5] is reported as over 20 µM and the IC50 [2, 6] is reported as 11.8 µM.

`COc1cc2nc(C)nc(NC(C)c3ccc(-c4ccccc4CN4CCN(C(=O)OC(C)(C)C)CC4)s3)c2cc1OC` (stereo not drawn) [Example 306, tert-butyl 4-[2-(5-{1-[(6,7-dimethoxy-2-methylquinazolin-4-yl)amino]ethyl}thiophen-2-yl)benzyl]piperazine-1-carboxylate] showed an IC50 [1, 5] of over 20 µM and an IC50 [2, 6] of 7.94 µM.

Compound `COc1cc2nc(C)nc(NC(C)c3ccc(-c4ccccc4CNc4ccccc4)s3)c2cc1OC` (stereo not drawn) [Example 362, 6,7-dimethoxy-2-methyl-N-[1-(5-{2-[(phenylamino)methyl]phenyl}thiophen-2-yl)ethyl]quinazolin-4-amine] has an IC50 [1, 5] of over 20 µM and an inhibition at 20 µM ([2]; no GTP) of 30%.

`COCCNCc1ccccc1-c1ccc(C(C)Nc2nc(C)nc3cc(OC)c(OC)cc23)s1` (stereo not drawn) [Example 369, 6,7-dimethoxy-N-{1-[5-(2-{[(2-methoxyethyl)amino]methyl}phenyl)thiophen-2-yl]ethyl}-2-methylquinazolin-4-amine] was tested, and the IC50 ([1]; in μM, read-out: EGFR-assay IC50) was over 20 µM and the IC50 [2, 4] was 0.169 µM.
